Reference: patent US5840684A, “Glycopeptide antibiotic derivatives” (Eli Lilly and Company, priority 1995, dated 1998)
Converted amounts (≈) assume the structure as drawn.

Key:
[1] = tested on: Staphylococcus aureus S13E; assay type: cell-based
Method: (§1) The MIC's were determined using a standard broth micro-dilution assay.

[2] = tested on: Staphylococcus aureus SA1199B; assay type: cell-based
Method: as §1

[3] = tested on: Entercoccus faecium 180-1; assay: broth micro-dilution MIC; assay type: cell-based
Method: as §1

[4] = tested on: Entercoccus faecium 276; assay: broth micro-dilution MIC; assay type: cell-based
Method: as §1

[5] = tested on: Staphylococcus aureus 446; assay: broth micro-dilution MIC; assay type: cell-based
Method: as §1

[6] = tested on: Staphylococcus aureus 447; assay: broth micro-dilution MIC; assay type: cell-based
Method: as §1

[7] = tested on: Staphylococcus aureus 491; assay: broth micro-dilution MIC; assay type: cell-based
Method: as §1

[8] = tested on: Staphylococcus aureus SA1199A; assay: broth micro-dilution MIC; assay type: cell-based
Method: as §1

[9] = tested on: Staphylococcus aureus SA1199; assay: broth micro-dilution MIC; assay type: cell-based
Method: as §1

[10] = tested on: Streptococcus pyogenes C203; assay: broth micro-dilution MIC; assay type: cell-based
Method: as §1

[11] = tested on: Entercoccus faecium 180; assay: broth micro-dilution MIC; assay type: cell-based; details: Entercoccus faecium 180
Method: (§2) The formula I compounds have in vitro and in vivo activity against Gram-positive pathogenic bacteria. The MIC's were determined using a standard broth micro-dilution assay.

[12] = tested on: Entercoccus faecium 2041; assay: broth micro-dilution MIC; assay type: cell-based; details: Entercoccus faecium 2041
Method: as §2

[13] = tested on: Enterococcus gallinarum 245; assay: broth micro-dilution MIC; assay type: cell-based; details: Enterococcus gallinarum 245
Method: as §2

[14] = tested on: Haemophilus influenzae RD; assay: broth micro-dilution MIC; assay type: cell-based; details: Haemophilus influenzae RD
Method: as §2

[15] = tested on: Staphylococcus epidermidis 270; assay: broth micro-dilution MIC; assay type: cell-based
Method: as §2

[16] = tested on: Staphylococcus haemolyticus 105; assay: broth micro-dilution MIC; assay type: cell-based
Method: as §2

[17] = tested on: Staphylococcus haemolyticus 415; assay: broth micro-dilution MIC; assay type: cell-based
Method: as §2

[18] = tested on: Streptococcus pneumoniae P1; assay: broth micro-dilution MIC; assay type: cell-based
Method: as §2

[19] = tested on: vancomycin-susceptible enterococci; assay: broth micro-dilution, mean geometric MIC; assay type: cell-based, Enterococcus faecium and Enterococcus faecalis; details: enterococci, 24-hour incubation
[20] = tested on: Staphylococcus aureus 489; assay: broth micro-dilution MIC; assay type: cell-based
Method: as §1

[21] = tested on: Staphylococcus aureus X400; assay: broth micro-dilution MIC; assay type: cell-based
Method: as §1

[22] = tested on: Staphylococcus aureus X778; assay: broth micro-dilution MIC; assay type: cell-based
Method: as §1

[23] = tested on: vancomycin-resistant enterococci; assay: broth micro-dilution, mean geometric MIC; assay type: cell-based, Enterococcus faecium and Enterococcus faecalis; details: enterococci, 24-hour incubation

| SMILES | MIC [1] | MIC [2] | MIC [3] | MIC [4] | MIC [5] | MIC [6] | MIC [8] | MIC [9] | MIC [10] | MIC [11] | MIC [12] | MIC [13] | MIC [14] | MIC [15] | MIC [16] | MIC [17] | MIC [18] | mean geometric MIC, Vancomycin Sensitive Strains [19] | MIC [20] | MIC [22] | other results |
| --- | --- | --- | --- | --- | --- | --- | --- | --- | --- | --- | --- | --- | --- | --- | --- | --- | --- | --- | --- | --- | --- |
| CNC(CC(C)C)C(=O)NC1C(=O)NC(CC(N)=O)C(=O)NC2C(=O)NC3C(=O)NC(C(=O)NC(C(=O)O)c4cc(O)cc(O)c4-c4cc3ccc4O)C(OC3CC(C)(N)C(O)C(C)O3)c3ccc(c(Cl)c3)Oc3cc2cc(c3OC2OC(CO)C(O)C(O)C2OC2CC(C)(NCc3cc4ccccc4s3)C(O)C(C)O2)Oc2ccc(cc2Cl)C1O (stereo not shown) [Compound 19] | ≤ 0.06 µg/mL | 1 µg/mL (≈ 0.575 µM) | ≤ 0.06 µg/mL | ≤ 0.06 µg/mL | 0.5 µg/mL (≈ 0.288 µM) | 1 µg/mL (≈ 0.575 µM) | ≤ 0.06 µg/mL | 0.5 µg/mL (≈ 0.288 µM) | ≤ 0.06 µg/mL | 1 µg/mL (≈ 0.575 µM) | ≤ 0.06 µg/mL | ≤ 0.06 µg/mL | 32 µg/mL (≈ 18.4 µM) | 2 µg/mL (≈ 1.15 µM) | 4 µg/mL (≈ 2.3 µM) | 8 µg/mL (≈ 4.6 µM) | ≤ 0.06 µg/mL | 0.22 µg/mL | – | – | MIC [7]: 2 µg/mL (≈ 1.15 µM) |
| CNC(CC(C)C)C(=O)NC1C(=O)NC(CC(N)=O)C(=O)NC2C(=O)NC3C(=O)NC(C(=O)NC(C(=O)O)c4cc(O)cc(O)c4-c4cc3ccc4O)C(OC3CC(C)(N)C(O)C(C)O3)c3ccc(c(Cl)c3)Oc3cc2cc(c3OC2OC(CO)C(O)C(O)C2OC2CC(C)(NCc3ccc(I)s3)C(O)C(C)O2)Oc2ccc(cc2Cl)C1O (stereo not shown) [Compound 74] | 0 µg/mL | 1 µg/mL (≈ 0.551 µM) | ≤ 0.06 µg/mL | – | 4 µg/mL (≈ 2.2 µM) | 1 µg/mL (≈ 0.551 µM) | ≤ 0.06 µg/mL | ≤ 0.06 µg/mL | ≤ 0.06 µg/mL | 0.5 µg/mL (≈ 0.276 µM) | ≤ 0.06 µg/mL | ≤ 0.06 µg/mL | 0.5 µg/mL (≈ 0.276 µM) | 0.5 µg/mL (≈ 0.276 µM) | 4 µg/mL (≈ 2.2 µM) | 4 µg/mL (≈ 2.2 µM) | ≤ 0.06 µg/mL | – | ≤ 0.06 µg/mL | ≤ 0.06 µg/mL | MIC [21]: ≤ 0.06 µg/mL; mean geometric MIC, Vancomycin Resistant Strains [23]: 11 µg/mL |
| CNC(CC(C)C)C(=O)NC1C(=O)NC(CC(N)=O)C(=O)NC2C(=O)NC3C(=O)NC(C(=O)NC(C(=O)O)c4cc(O)cc(O)c4-c4cc3ccc4O)C(OC3CC(C)(N)C(O)C(C)O3)c3ccc(c(Cl)c3)Oc3cc2cc(c3OC2OC(CO)C(O)C(O)C2OC2CC(C)(NCc3ccc(OCCOCCCl)cc3)C(O)C(C)O2)Oc2ccc(cc2Cl)C1O (stereo not shown) [Compound 75] | 0 µg/mL | 0.5 µg/mL (≈ 0.277 µM) | ≤ 0.06 µg/mL | ≤ 0.06 µg/mL | 2 µg/mL (≈ 1.11 µM) | 1 µg/mL (≈ 0.554 µM) | ≤ 0.06 µg/mL | 2 µg/mL (≈ 1.11 µM) | ≤ 0.06 µg/mL | 0.5 µg/mL (≈ 0.277 µM) | ≤ 0.06 µg/mL | 4 µg/mL (≈ 2.22 µM) | 2 µg/mL (≈ 1.11 µM) | 0.5 µg/mL (≈ 0.277 µM) | 2 µg/mL (≈ 1.11 µM) | 4 µg/mL (≈ 2.22 µM) | ≤ 0.06 µg/mL | 0.50 µg/mL | ≤ 0.06 µg/mL | ≤ 0.06 µg/mL | MIC [21]: ≤ 0.06 µg/mL; mean geometric MIC, Vancomycin Resistant Strains [23]: 16 µg/mL |
| CNC(CC(C)C)C(=O)NC1C(=O)NC(CC(N)=O)C(=O)NC2C(=O)NC3C(=O)NC(C(=O)NC(C(=O)O)c4cc(O)cc(O)c4-c4cc3ccc4O)C(OC3CC(C)(N)C(O)C(C)O3)c3ccc(c(Cl)c3)Oc3cc2cc(c3OC2OC(CO)C(O)C(O)C2OC2CC(C)(NCc3ccc(C#Cc4ccccc4)cc3)C(O)C(C)O2)Oc2ccc(cc2Cl)C1O (stereo not shown) [Compound 79] | 4 µg/mL (≈ 2.24 µM) | 1 µg/mL (≈ 0.561 µM) | ≤ 0.06 µg/mL | ≤ 0.06 µg/mL | 2 µg/mL (≈ 1.12 µM) | 2 µg/mL (≈ 1.12 µM) | – | 1 µg/mL (≈ 0.561 µM) | ≤ 0.06 µg/mL | ≤ 0.06 µg/mL | ≤ 0.06 µg/mL | ≤ 0.06 µg/mL | 16 µg/mL (≈ 8.98 µM) | 0.5 µg/mL (≈ 0.28 µM) | 4 µg/mL (≈ 2.24 µM) | 4 µg/mL (≈ 2.24 µM) | ≤ 0.06 µg/mL | 0.042 µg/mL | 2 µg/mL (≈ 1.12 µM) | 2 µg/mL (≈ 1.12 µM) | MIC [7]: 4 µg/mL (≈ 2.24 µM); mean geometric MIC, Vancomycin Resistant Strains [23]: 0.84 µg/mL |
